Our source for the IC50 values is patent publication US8481732B2 (Incyte Corporation, priority 2009, dated 2013).

The IC50 is the midpoint of a concentration-inhibition curve.

T1 sequence (Q9H3N8 whole entry): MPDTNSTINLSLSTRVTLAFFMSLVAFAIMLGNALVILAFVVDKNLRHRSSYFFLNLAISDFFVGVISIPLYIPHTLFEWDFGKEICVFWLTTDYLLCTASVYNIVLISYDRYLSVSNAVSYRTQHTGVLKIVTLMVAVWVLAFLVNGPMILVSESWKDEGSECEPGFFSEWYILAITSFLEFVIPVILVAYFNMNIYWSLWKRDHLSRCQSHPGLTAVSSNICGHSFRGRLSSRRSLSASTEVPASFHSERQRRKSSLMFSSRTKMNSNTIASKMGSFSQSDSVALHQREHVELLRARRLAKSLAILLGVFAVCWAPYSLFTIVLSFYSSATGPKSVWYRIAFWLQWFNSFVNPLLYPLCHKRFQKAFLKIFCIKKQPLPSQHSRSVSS

This assay concerns the target T1, histamine H4 receptor (Homo sapiens, UniProt Q9H3N8).
T1 construct: expressed in transfected cells; host or cells: HEK293SFM cells (membrane preparation)
In words: H4 Membrane Binding Assay (3H-Histamine displacement). Conditions: membranes of recombinant HEK293SFM cells, 10 nM 3H-Histamine, 1.5 hr at room temperature. As to the method:
Recombinant HEK293SFM cells expressing human H1, H2, H3, H4 or mouse H4 were harvested (Packard Filtermate Harvester) in ice-cold Tris-HCl, (50 mM, pH 7.5, Sigma) with protease inhibitors (Roche) and homogenized with a Polytron homogenizer. The homogenate was centrifuged for 5 minutes at 1000 g to remove nuclei and unbroken cells. The supernatant was centrifuged at 50000 g for 30 minutes, and the resulting pellet was re-suspended in ice-cold Tris-HCl (50 mM, pH 7.5). […] Nonspecific binding was determined by inclusion of 1000× unlabeled ligands. The bound radioactivity was separated by filtration through polyethyleneimine-treated GF/B filters (Perkin Elmer). The filters were washed eight times with ice-cold Tris-HCl (50 mM, pH 7.5), and radioactivity retained on the filters was measured by liquid scintillation counting. The binding data were evaluated with Prism.
Regarding `CN1CCN(c2nc(N)nc3cc(C(=O)NC(Cc4nc5ccccc5s4)C(=O)N(C)C)ccc23)CC1` (centres unmarked) [Example 144, 2-Amino-N-[1-(1,3-benzothiazol-2-ylmethyl)-2-(dimethylamino)-2-oxoethyl]-4-(4-methylpiperazin-1-yl)quinazoline-7-carboxamide], the IC50 was determined as 0.19 µM.

In the case of `CN1CCN(c2nc(N)nc3cc(C(=O)N[C@@H](Cc4ccc(-c5cncc(C(F)(F)F)c5)cc4)C(=O)N(C)C)ccc23)CC1` [Example 161, 2-Amino-N-((1S)-2-(dimethylamino)-2-oxo-1-{4-[5-(trifluoromethyl)pyridin-3-yl]benzyl}ethyl)-4-(4-methylpiperazin-1-yl)quinazoline-7-carboxamide], the IC50 turned out to be 0.031 µM.

As for `CN1CCN(c2cc(-c3ccc4c(c3)CN(C(=O)Cc3cncc(C#N)c3)CC4)nc(N)n2)CC1` [Example 125, 5-{2-[7-[2-Amino-6-(4-methylpiperazin-1-yl)pyrimidin-4-yl]-3,4-dihydroisoquinolin-2(1H)-yl]-2-oxoethyl}nicotinonitrile], the IC50 came out at 0.092 µM.

Take `COC(=O)c1ccccc1Oc1cccc(CNC(=O)c2ccc3c(N4CCN(C)CC4)nc(N)nc3c2)c1` [Example 191, Methyl 2-{3-[({[2-amino-4-(4-methylpiperazin-1-yl)quinazolin-7-yl]carbonyl}amino)methyl]phenoxy}benzoate]: the concentration for half-maximal inhibition (IC50) worked out at 0.02 µM.

With `CN1CCN(c2cc(-c3ccc4c(c3)CN(C(=O)N3CCC(c5ccccc5)CC3)CC4)nc(N)n2)CC1` [Example 103, 4-(4-Methylpiperazin-1-yl)-6-{2-[(4-phenylpiperidin-1-yl)carbonyl]-1,2,3,4-tetrahydroisoquinolin-7-yl}pyrimidin-2-amine], the half-inhibitory concentration (IC50) was 0.084 µM.

For the compound `CN1CCN(c2nc(N)nc3cc(C(=O)NCc4cccc(Oc5cc(C#N)ccn5)c4)ccc23)CC1` [Example 183, 2-Amino-N-{3-[(4-cyanopyridin-2-yl)oxy]benzyl}-4-(4-methylpiperazin-1-yl)quinazoline-7-carboxamide], the IC50 came to 0.065 µM.

As for `CN1CCN(c2nc(N)nc3cc(C(=O)NCc4ccc(Cl)c(Cl)c4)ccc23)CC1` [Example 131, 2-Amino-N-(3,4-dichlorobenzyl)-4-(4-methylpiperazin-1-yl)quinazoline-7-carboxamide], the IC50 came out at 0.017 µM.

In the case of `CN1CCN(c2cc(-c3ccc4c(c3)CN(C(=O)C3CCCCC3)CC4)nc(N)n2)CC1` [Example 105, 4-[2-(Cyclohexylcarbonyl)-1,2,3,4-tetrahydroisoquinolin-7-yl]-6-(4-methylpiperazin-1-yl)pyrimidin-2-amine], the concentration for half-maximal inhibition (IC50) worked out at 0.081 µM.

For the compound `COC(=O)[C@H](Cc1ccc(-c2cnn(C)c2)cc1)NC(=O)c1ccc2c(N3CCN(C)CC3)nc(N)nc2c1` [Example 140, Methyl (2S)-2-({[2-amino-4-(4-methylpiperazin-1-yl)quinazolin-7yl]carbonyl}amino)-3-[4-(1-methyl-1H-pyrazol-4-yl)phenyl]propanoate], the IC50 is 0.042 µM.

`CN1CCN(c2cc(-c3ccc4c(c3)CN(C(=O)Cc3ccc(N5CCCC5)nc3)CC4)nc(N)n2)CC1` [Example 128, 4-(4-Methylpiperazin-1-yl)-6-{2-[(6-pyrrolidin-1-ylpyridin-3-yl)acetyl]-1,2,3,4-tetrahydroisoquinolin-7-yl}pyrimidin-2-amine]: the 50% inhibitory concentration (IC50) is 0.045 µM.

Consider `CN1CCN(c2nc(N)nc3cc(C(=O)NCc4cccc(Oc5nccc6ccccc56)c4)ccc23)CC1` [Example 181, 2-Amino-N-[3-(isoquinolin-1-yloxy)benzyl]-4-(4-methylpiperazin-1-yl)quinazoline-7-carboxamide], for which the half-maximal inhibitory concentration (IC50) was 0.016 µM.

In the case of `CCC(C)CC(=O)N1CCc2ccc(-c3cc(N4CCN(C)CC4)nc(N)n3)cc2C1` (centres unmarked) [Example 111, 4-[2-(3-Methylpentanoyl)-1,2,3,4-tetrahydroisoquinolin-7-yl]-6-(4-methylpiperazin-1-yl)pyrimidin-2-amine], the concentration for half-maximal inhibition (IC50) was 0.0095 µM.

Consider `CN1CCN(c2cc(-c3ccc4c(c3)CN(C(=O)NC3(C(F)(F)F)CC3)CC4)nc(N)n2)CC1` [Example 117, 7-[2-amino-6-(4-methylpiperazin-1-yl)pyrimidin-4-yl]-N-[1-(trifluoromethyl)cyclopropyl]-3,4-dihydroisoquinoline-2(1H)-carboxamide], for which the IC50 is 0.183 µM.

In the case of `CN1CCN(c2cc(-c3ccc4c(c3)CN(C(=O)Nc3ccc(Cl)cc3)CC4)nc(N)n2)CC1` [Example 8, 7-[2-Amino-6-(4-methylpiperazin-1-yl)pyrimidin-4-yl]-N-(4-chlorophenyl)-3,4-dihydroisoquinoline-2(1H)-carboxamide], the IC50 worked out at 0.0132 µM.

Take `CN1CCN(c2cc(-c3ccc4c(c3)CN(C(=O)NC3(C)CCCCC3)CC4)nc(N)n2)CC1` [Example 47, 7-[2-Amino-6-(4-methylpiperazin-1-yl)pyrimidin-4-yl]-N-(1-methylcyclohexyl)-3,4-dihydroisoquinoline-2(1H)-carboxamide]: the 50% inhibitory concentration (IC50) is 0.027 µM.

For `CC(C)Cc1ccc(C(C)NC(=O)c2ccc3c(N4CCN(C)CC4)nc(N)nc3c2)cc1` (centres unmarked) [Example 28, 2-Amino-N-[1-(4-isobutylphenyl)ethyl]-4-(4-methylpiperazin-1-yl)quinazoline-7-carboxamide], the IC50 is 0.171 µM.

With `CN1CCN(c2cc(-c3ccc4c(c3)CN(C(=O)N3CCC(F)(F)CC3)CC4)nc(N)n2)CC1` [Example 104, 4-{2-[(4,4-Difluoropiperidin-1-yl)carbonyl]-1,2,3,4-tetrahydroisoquinolin-7-yl}-6-(4-methylpiperazin-1-yl)pyrimidin-2-amine], the IC50 is 0.259 µM.

Regarding `CN1CCN(c2cc(-c3ccc4c(c3)CN(c3ccc(C#N)cc3)CC4)nc(N)n2)CC1` [Example 14, 4-{7-[2-Amino-6-(4-methylpiperazin-1-yl)pyrimidin-4-yl]-3,4-dihydroisoquinolin-2(1H)-yl}benzonitrile], the IC50 stood at 0.0231 µM.

`CN1CCN(c2nc(N)nc3cc(C(=O)NCc4ccc(-c5ccccc5)cc4)ccc23)CC1` [Example 33]: the half-inhibitory concentration (IC50) was determined as 0.19 µM.

As to `Cc1ccc(C#N)c(Oc2cccc(C(C)NC(=O)c3ccc4c(N5CCN(C)CC5)nc(N)nc4c3)c2)n1` (centres unmarked) [Example 198, 2-Amino-N-(1-{3-[(3-cyano-6-methylpyridin-2-yl)oxy]phenyl}ethyl)-4-(4-methylpiperazin-1-yl)quinazoline-7-carboxamide], the IC50 amounted to 0.034 µM.

On to `CN1CCN(c2cc(-c3ccc4c(c3)CN(c3ccc(C#N)c(F)c3)CC4)nc(N)n2)CC1` [Example 15, 4-{7-[2-Amino-6-(4-methylpiperazin-1-yl)pyrimidin-4-yl]-3,4-dihydroisoquinolin-2(1H)-yl}-2-fluorobenzonitrile], for which the IC50 was determined as 0.039 µM.

On to `Cc1ccc(C#N)c(Oc2cccc(CC(NC(=O)c3ccc4c(N5CCN(C)CC5)nc(N)nc4c3)C(=O)N(C)C)c2)n1` (centres unmarked) [Example 173, 2-Amino-N-[1-{3-[(3-cyano-6-methylpyridin-2-yl)oxy]benzyl}-2-(dimethylamino)-2-oxoethyl]-4-(4-methylpiperazin-1-yl)quinazoline-7-carboxamide], for which the 50% inhibitory concentration (IC50) was 0.067 µM.

As for `CN1CCN(c2cc(-c3ccc4c(c3)CN(C(=O)CC3CCCC3)CC4)nc(N)n2)CC1` [Example 41, 4-[2-(Cyclopentylacetyl)-1,2,3,4-tetrahydroisoquinolin-7-yl]-6-(4-methylpiperazin-1-yl)pyrimidin-2-amine], the IC50 is 0.028 µM.

Turning to `CN1CCN(c2cc(-c3ccc4c(c3)CN(C(=O)OC3CCN(C(=O)OC5CCCC5)CC3)CC4)nc(N)n2)CC1` [Example 69, 1-[(Cyclopentyloxy)carbonyl]piperidin-4-yl 7-[2-amino-6-(4-methylpiperazin-1-yl)pyrimidin-4-yl]-3,4-dihydroisoquinoline-2(1H)-carboxylate], the half-maximal inhibitory concentration (IC50) was found to be 0.033 µM.

Regarding `CC(NC(=O)c1ccc2c(N3CCN(C)CC3)nc(N)nc2c1)c1cccc(Oc2ncccc2C#N)c1` (centres unmarked) [Example 199, 2-Amino-N-(1-{3-[(3-cyanopyridin-2-yl)oxy]phenyl}ethyl)-4-(4-methylpiperazin-1-yl)quinazoline-7-carboxamide], the IC50 turned out to be 0.063 µM.

With `COC(=O)c1cccc(COc2cccc3c2CCN(C(=O)c2ccc4c(N5CCN(C)CC5)nc(N)nc4c2)C3)c1` [Example 209, Methyl 3-((2-(2-amino-4-(4-methylpiperazin-1-yl)quinazoline-7-carbonyl)-1,2,3,4-tetrahydroisoquinolin-5-yloxy)methyl)benzoate], the concentration for half-maximal inhibition (IC50) was determined as 0.036 µM.

For the compound `CN1CCN(c2cc(-c3ccc4c(c3)CN(C(=O)NC(Cc3ccccc3)C(=O)N(C)C)CC4)nc(N)n2)CC1` (stereo in doubt) [Example 60, 7-[2-Amino-6-(4-methylpiperazin-1-yl)pyrimidin-4-yl]-N-[(1R)-1-benzyl-2-(dimethylamino)-2-oxoethyl]-3,4-dihydroisoquinoline-2(1H)-carboxamide], the IC50 was 0.497 µM.

On to `CN1CCN(c2cc(-c3ccc4c(c3)CN(C(=O)N[C@@H]3CCOC3)CC4)nc(N)n2)CC1` [Example 84, 7-[2-Amino-6-(4-methylpiperazin-1-yl)pyrimidin-4-yl]-N-[(3R)-tetrahydrofuran-3-yl]-3,4-dihydroisoquinoline-2(1H)-carboxamide], for which the IC50 was 0.744 µM.

`COc1cccc(-c2ccc(C[C@H](NC(=O)c3ccc4c(N5CCN(C)CC5)nc(N)nc4c3)C(=O)N(C)C)cc2)n1` [Example 153, 2-Amino-N-{(1S)-2-(dimethylamino)-1-[4-(6-methoxypyridin-2-yl)benzyl]-2-oxoethyl}-4-(4-methylpiperazin-1-yl)quinazoline-7-carboxamide]: the IC50 turned out to be 0.019 µM.
